This is an account of results in ChEMBL document CHEMBL4359843, “Linear and Rationally Designed Stapled Peptides Abrogate TLR4 Pathway and Relieve Inflammatory Symptoms in Rheumatoid Arthritis Rat Model” (J Med Chem, 2019).

The source made the active and inactive calls. The calls are words filed in the database; no cut-off is given here. Where a SMILES comes first, the peptide text is derived from it. Bridges are numbered along the chain shown (N, C = ends).

In data set [1] the target is T1, Toll-like receptor 4 (Mus musculus) (UniProt Q9QUK6).
T1 sequence (whole entry): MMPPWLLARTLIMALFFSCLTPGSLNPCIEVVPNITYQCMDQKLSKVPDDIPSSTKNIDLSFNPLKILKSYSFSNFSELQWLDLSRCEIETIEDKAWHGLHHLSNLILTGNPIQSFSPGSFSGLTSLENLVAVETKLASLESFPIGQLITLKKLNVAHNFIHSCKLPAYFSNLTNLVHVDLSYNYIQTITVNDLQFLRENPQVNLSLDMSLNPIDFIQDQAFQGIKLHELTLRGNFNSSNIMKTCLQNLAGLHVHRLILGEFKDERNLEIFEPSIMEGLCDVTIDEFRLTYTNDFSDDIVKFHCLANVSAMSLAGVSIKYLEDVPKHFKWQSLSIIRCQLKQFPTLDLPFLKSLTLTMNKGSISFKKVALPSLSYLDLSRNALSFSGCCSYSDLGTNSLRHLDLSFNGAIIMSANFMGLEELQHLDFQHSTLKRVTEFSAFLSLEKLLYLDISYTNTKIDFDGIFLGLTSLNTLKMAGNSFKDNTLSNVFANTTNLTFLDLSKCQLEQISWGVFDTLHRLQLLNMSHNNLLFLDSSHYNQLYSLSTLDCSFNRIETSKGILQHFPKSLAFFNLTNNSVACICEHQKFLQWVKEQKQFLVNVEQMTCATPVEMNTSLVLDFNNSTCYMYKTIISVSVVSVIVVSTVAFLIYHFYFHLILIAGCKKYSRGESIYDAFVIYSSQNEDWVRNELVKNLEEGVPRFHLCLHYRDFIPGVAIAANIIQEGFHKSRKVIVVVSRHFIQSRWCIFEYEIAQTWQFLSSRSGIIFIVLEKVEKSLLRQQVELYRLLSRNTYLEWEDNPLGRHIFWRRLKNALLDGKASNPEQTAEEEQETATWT
As to the kind of experiment: Antagonist activity at TLR4 in mouse RAW264.7 cells assessed as reduction in LPS-induced cytosolic NO level at 50 uM by DAF-FM staining based FACS analysis. It counts as cell-based. (Flow cytometry measures light scatter and fluorescence of single cells or particles in a stream.)

For data set [2], the system named is Rattus norvegicus. Briefly: Antiarthritic activity in Lewis rat model of complete Freund's adjuvant-induced arthritis assessed as increase in osteocytes within lacunae at 1 nmol/g administered intra-articularly into knee joint after 4 to 6 week by H and E staining based histopathological analysis. It is filed as functional, organism-based.
For data set [3], the system named is Rattus norvegicus. Briefly: Antiarthritic activity in Lewis rat model of complete Freund's adjuvant-induced arthritis assessed as reduction in TNFalpha expression in synovial tissues at 1 nmol/g administered intra-articularly into knee joint measured at 1 week by TNFalpha staining based immunohistochemical analysis. It counts as functional, organism-based.
Data set [4] concerns the target T2, TLR2/TLR6 (Homo sapiens) (UniProt O60603+Q9Y2C9). Briefly: Antagonist activity at TLR2/6 in human THP1 cells assessed as reduction in FSL-1-induced IL6 secretion at 50 uM after 24 hrs by ELISA. It counts as cell-based.
The target of data set [5] is T1, Toll-like receptor 4 (Mus musculus). As to the kind of experiment: Antagonist activity at TLR4 in mouse RAW264.7 cells assessed as reduction in LPS-induced IRF3 phosphorylation at 80 uM after 120 to 240 mins by Western blot analysis. It is filed as cell-based.
Data set [6] has the same target. As to the kind of experiment: Antagonist activity at TLR4 in mouse RAW264.7 cells assessed as reduction in LPS-induced IkappaBalpha cytosolic degradation at 80 uM after 15 to 30 mins by Western blot analysis. It is filed as cell-based. In general terms: A western blot detects proteins with antibodies after separation by electrophoresis.
For the next data set, the system named is Mus musculus. Briefly: Antiinflammatory activity in C57BL/6J mouse assessed as reduction in LPS-induced IL6 secretion at 70 nmol/g, ip pretreated for 1 hr followed by LPS challenge and measured after 2 hrs by ELISA. It counts as functional, organism-based.
The target in data set [7] is T3, Toll-like receptor 9 (Mus musculus) (UniProt Q9EQU3).
T3 sequence (whole entry): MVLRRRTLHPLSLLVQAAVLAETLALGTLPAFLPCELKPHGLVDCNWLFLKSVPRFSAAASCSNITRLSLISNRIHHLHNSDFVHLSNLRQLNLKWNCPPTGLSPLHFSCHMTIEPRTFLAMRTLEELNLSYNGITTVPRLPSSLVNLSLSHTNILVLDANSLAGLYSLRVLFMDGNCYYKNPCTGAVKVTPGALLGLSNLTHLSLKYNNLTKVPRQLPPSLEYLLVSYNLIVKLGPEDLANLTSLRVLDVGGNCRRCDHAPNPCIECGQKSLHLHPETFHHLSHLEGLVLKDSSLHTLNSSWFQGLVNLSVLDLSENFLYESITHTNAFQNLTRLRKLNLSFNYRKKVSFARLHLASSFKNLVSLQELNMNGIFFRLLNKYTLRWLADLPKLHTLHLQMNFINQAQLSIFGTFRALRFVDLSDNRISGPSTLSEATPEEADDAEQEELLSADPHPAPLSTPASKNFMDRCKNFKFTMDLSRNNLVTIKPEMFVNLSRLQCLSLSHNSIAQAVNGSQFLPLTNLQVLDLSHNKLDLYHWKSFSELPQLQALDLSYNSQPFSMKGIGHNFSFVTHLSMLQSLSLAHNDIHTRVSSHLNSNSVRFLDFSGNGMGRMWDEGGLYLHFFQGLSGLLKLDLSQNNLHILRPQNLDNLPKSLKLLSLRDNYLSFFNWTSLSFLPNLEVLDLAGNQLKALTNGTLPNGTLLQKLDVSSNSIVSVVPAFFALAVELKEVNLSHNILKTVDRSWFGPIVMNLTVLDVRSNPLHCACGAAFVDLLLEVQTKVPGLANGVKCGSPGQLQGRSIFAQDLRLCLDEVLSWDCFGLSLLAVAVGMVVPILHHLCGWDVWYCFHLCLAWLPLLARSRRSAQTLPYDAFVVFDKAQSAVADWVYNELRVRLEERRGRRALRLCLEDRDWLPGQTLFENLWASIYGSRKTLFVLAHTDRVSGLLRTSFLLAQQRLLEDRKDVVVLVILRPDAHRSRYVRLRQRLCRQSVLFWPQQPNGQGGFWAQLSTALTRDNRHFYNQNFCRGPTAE
As to the kind of experiment: Antagonist activity at TLR9 in mouse RAW264.7 cells assessed as reduction in CpG ODN-induced TNFalpha secretion at 20 to 80 uM after 24 hrs by ELISA. It is filed as cell-based.

In another data set the target is Toll-like receptor 4 (Homo sapiens, UniProt O00206). As to the kind of experiment: Antagonist activity at TLR4 in human PBMC cells assessed as reduction in LPS-induced IkappaBalpha degradation at 80 uM after 15 to 30 mins by Western blot analysis. It is filed as cell-based.
Sequence of Toll-like receptor 4 (O00206 whole entry): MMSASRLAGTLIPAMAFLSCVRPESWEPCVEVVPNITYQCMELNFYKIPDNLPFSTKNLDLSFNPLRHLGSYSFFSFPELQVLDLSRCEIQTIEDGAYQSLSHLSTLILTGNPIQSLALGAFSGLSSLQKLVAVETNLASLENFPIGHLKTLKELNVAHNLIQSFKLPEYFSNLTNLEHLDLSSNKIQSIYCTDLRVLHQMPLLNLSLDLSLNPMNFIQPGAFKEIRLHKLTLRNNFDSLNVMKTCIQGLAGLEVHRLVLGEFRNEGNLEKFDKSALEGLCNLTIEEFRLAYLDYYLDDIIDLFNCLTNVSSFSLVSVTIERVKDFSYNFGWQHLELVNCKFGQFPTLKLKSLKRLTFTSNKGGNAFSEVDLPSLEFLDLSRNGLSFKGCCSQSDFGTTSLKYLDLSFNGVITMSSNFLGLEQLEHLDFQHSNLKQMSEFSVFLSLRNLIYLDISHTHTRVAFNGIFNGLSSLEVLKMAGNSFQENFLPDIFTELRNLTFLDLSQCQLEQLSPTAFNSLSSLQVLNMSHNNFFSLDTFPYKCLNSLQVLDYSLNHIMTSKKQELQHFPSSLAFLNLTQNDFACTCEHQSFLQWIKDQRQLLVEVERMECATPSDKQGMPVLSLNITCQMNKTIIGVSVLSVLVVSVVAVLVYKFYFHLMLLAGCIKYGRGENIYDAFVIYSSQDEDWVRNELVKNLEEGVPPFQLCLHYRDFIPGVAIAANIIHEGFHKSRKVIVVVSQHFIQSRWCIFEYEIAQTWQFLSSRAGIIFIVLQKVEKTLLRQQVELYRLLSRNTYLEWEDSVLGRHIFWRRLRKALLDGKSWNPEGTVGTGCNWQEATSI
The subject of data set [8] is RAW264.7. Briefly: Antagonist activity at TLR7/8 in mouse RAW264.7 cells assessed as reduction in R848-induced TNFalpha secretion at 20 to 80 uM after 24 hrs by ELISA. It counts as cell-based. Background: ELISA stands for enzyme-linked immunosorbent assay.
For data set [9], the target named is Toll-like receptor 2 (Homo sapiens) (UniProt O60603). As to the kind of experiment: Non-specific binding affinity to human TLR2 up to 200 uM by surface plasmon resonance analysis.
Sequence of Toll-like receptor 2 (Homo sapiens) (O60603 whole entry): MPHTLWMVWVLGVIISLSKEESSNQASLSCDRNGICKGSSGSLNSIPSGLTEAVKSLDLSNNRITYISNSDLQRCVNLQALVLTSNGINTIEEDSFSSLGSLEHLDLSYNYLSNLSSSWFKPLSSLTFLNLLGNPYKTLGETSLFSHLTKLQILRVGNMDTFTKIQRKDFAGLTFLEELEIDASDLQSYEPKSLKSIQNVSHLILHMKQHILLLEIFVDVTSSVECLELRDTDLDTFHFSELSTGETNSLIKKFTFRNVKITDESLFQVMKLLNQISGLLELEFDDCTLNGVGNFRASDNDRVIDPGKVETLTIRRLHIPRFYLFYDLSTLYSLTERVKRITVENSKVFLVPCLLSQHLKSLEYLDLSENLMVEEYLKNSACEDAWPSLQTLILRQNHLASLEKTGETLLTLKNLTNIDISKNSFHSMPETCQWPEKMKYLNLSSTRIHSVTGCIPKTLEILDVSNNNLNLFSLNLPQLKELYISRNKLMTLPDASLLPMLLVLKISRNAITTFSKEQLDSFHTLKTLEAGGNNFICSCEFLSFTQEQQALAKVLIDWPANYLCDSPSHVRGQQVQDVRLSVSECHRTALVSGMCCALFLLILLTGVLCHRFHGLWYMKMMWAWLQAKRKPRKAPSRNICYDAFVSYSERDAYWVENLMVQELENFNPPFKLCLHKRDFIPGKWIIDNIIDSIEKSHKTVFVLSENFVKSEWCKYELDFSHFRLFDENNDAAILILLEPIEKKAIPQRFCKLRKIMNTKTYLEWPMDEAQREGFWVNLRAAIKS
The subject of data set [10] is RAW264.7. As to the kind of experiment: Cytotoxicity against mouse RAW264.7 cells assessed as reduction in cell viability at 100 uM after 24 hrs by MTT assay. The following applies: raw264.7, 24 h. It counts as cell-based.
The target in data set [11] is T2, TLR2/TLR6 (Homo sapiens). As to the kind of experiment: Antagonist activity at TLR2/6 in human PBMC cells assessed as reduction in FSL-1-induced IL6 secretion at 20 to 80 uM after 24 hrs by ELISA. It counts as cell-based.

Take `CC[C@H](C)[C@@H]1NC(=O)[C@H](Cc2c[nH]c3ccccc23)NC(=O)[C@H](Cc2c[nH]c3ccccc23)NC(=O)[C@@H](NC(=O)[C@H](CO)NC(=O)[C@H](Cc2ccccc2)NC(=O)[C@@H](NC(=O)CNC(=O)[C@@H](N)CC(C)C)C(C)C)CC(=O)NCCCC[C@@H](C(=O)N[C@@H](CC(C)C)C(=O)N[C@H](C(=O)O)C(C)C)NC1=O` (H-LGVFSDWWIKLV-OH; lactam 6-10): the result (in data set [1]; in the data set on Rattus norvegicus [2]; in the data set on Rattus norvegicus [3]; at TLR2/TLR6 (Homo sapiens) [4]) was Active.

As for H-LGVFSSWWIKLV-OH, the outcome (in [5]; in data set [6]; in the data set on Mus musculus; at Toll-like receptor 4; in data set [9]) was Active. Also, the outcome (in data set [7]; in the data set on RAW264.7 [8]; at TLR2/TLR6 (Homo sapiens) [11]) was inactive. In the data set with RAW264.7 [10], the Activity entry was “Toxic”.
